This is an account of results in ChEMBL document CHEMBL1221181, “Virtual and biomolecular screening converge on a selective agonist for GPR30” (Nat Chem Biol, 2006).

SMILES strings stand for the structures. The source made the active and inactive calls. The calls are words filed in the database; no cut-off is given here.

Assay [1] addresses Estrogen receptor beta (Homo sapiens) (UniProt Q92731). Nature of the assay: Agonist activity at GFP-tagged ERbeta expressed in COS7 cells assessed as PI3K activation at 10 nM by PIP3 nuclear accumulation assay. The format is functional, cell-based. To be noted: COS-7.
Assay [2] shares this target. Nature of the assay: Displacement of E2-Alexa633 from GFP-tagged ERbeta expressed in COS7 cells at 1 uM by FACS. The format is cell-based. The settings on record: COS-7.

Chain of Estrogen receptor beta (Homo sapiens) (Q92731 whole entry): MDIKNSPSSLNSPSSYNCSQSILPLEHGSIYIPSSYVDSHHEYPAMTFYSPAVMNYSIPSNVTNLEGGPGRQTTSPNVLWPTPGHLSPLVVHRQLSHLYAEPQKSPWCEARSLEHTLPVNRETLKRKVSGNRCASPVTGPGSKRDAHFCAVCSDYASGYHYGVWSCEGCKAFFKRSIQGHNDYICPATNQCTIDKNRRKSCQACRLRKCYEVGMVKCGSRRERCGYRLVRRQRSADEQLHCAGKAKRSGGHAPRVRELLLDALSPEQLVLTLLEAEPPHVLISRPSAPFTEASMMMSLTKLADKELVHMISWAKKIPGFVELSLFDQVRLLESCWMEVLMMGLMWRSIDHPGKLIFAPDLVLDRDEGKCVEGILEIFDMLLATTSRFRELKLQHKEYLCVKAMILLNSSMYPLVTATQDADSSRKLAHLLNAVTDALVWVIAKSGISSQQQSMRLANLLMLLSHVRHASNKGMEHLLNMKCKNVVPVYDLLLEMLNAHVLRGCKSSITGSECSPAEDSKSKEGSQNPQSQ

Turning to `CC(=O)c1ccc2c(c1)[C@@H]1C=CC[C@@H]1[C@H](c1cc3c(cc1Br)OCO3)N2`, the result in assay [1] and in assay [2] was inactive.
